These results are taken from US7488740B2, “Substituted quinolin-4-ylamine analogues” (Neurogen Corporation, priority 2003, dated 2009).

Bounds are passed on as bounds.

One may read the IC50 as the concentration needed to halve the response being measured.

In this experiment the target is T1, human capsaicin receptor (Homo sapiens, UniProt Q8NER1).
T1 construct: A cDNA encoding full length human capsaicin receptor recited in U.S. Pat. No. 6,482,611 was subcloned in the plasmid pBK-CMV; expressed in transfected cells
T1 sequence (Q8NER1 whole entry): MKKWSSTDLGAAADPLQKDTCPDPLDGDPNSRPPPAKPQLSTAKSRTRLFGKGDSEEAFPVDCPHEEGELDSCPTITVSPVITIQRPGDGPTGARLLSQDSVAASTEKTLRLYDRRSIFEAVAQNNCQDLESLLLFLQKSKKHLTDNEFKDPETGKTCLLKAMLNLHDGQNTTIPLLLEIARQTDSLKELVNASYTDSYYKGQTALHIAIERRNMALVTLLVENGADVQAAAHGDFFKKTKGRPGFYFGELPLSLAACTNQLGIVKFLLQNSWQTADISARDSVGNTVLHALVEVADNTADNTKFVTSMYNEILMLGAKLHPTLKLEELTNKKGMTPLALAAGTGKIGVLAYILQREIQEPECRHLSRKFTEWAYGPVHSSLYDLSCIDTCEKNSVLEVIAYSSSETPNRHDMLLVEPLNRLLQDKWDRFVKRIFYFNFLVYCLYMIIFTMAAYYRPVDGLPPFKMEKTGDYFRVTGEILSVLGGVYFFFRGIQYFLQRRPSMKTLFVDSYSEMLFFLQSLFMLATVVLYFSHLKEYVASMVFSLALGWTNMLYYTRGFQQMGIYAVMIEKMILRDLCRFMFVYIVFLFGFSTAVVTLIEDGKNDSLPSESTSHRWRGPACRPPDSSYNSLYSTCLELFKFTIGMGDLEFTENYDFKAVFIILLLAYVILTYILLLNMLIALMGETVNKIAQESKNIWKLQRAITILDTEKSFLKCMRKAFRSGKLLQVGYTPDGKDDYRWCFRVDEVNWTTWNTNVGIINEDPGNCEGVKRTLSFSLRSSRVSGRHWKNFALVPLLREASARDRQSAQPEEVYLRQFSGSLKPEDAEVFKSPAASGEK
The experiment is described as follows: Calcium mobilization assay (Example 6). The class given is cell-based. The conditions noted are these: concentration required to provide a 50% decrease in the fluorescence response of cells exposed to one IC50 of capsaicin. Here is the method: Human embryonic kidney (HEK293) cells were transfected with the pBK-CMV expression construct encoding the full length human capsaicin receptor using standard methods. The transfected cells were selected for two weeks in media containing G418 (400 μg/ml) to obtain a pool of stably transfected cells. Independent clones were isolated from this pool by limiting dilution to obtain clonal stable cell lines for use in subsequent experiments.
Cells transfected with expression plasmids (as described in Example 4) and thereby expressing human capsaicin receptor are seeded and grown to 70-90% confluency in FALCON black-walled, clear-bottomed 96-well plates (#3904, BECTON-DICKINSON, Franklin Lakes, N.J.). The culture medium is emptied from the 96 well plates and FLUO-3 AM calcium sensitive dye (Molecular Probes, Eugene, Oreg.) is added to each well (dye solution: 1 mg FLUO-3 AM, 440 μL DMSO and 440 μl 20% pluronic acid in DMSO, diluted 1:250 in Krebs-Ringer HEPES (KRH) buffer (25 mM HEPES, 5 mM KCl, 0.96 mM NaH2PO4, 1 mM MgSO4, 2 mM CaCl2, 5 mM glucose, 1 mM probenecid, pH 7.4), 50 μl diluted solution per well). Plates are covered with aluminum foil and incubated at 37° C. for 1-2 hours in an environment containing 5% CO2. After the incubation, the dye is emptied from the plates, and the cells are washed once with KRH buffer, and, resuspended in KRH buffer.
Agonist (e.g., olvanil, capsaicin, or RTX)-induced calcium mobilization is monitored using either FLUOROSKAN ASCENT (Labsystems, Franklin, Mass.) or FLIPR (fluorometric imaging plate reader system, Molecular Devices, Sunnyvale, Calif.) instruments. Varying concentrations of the antagonists ruthenium red or capsazepine (RBI; Natick, Mass.) are added to cells concurrently with agonist (e.g., 25-50 nM capsaicin). For agonist-induced calcium responses, data obtained between 30 and 60 seconds after agonist application are used to generate the IC50 values. KALEIDAGRAPH software (Synergy Software, Reading, Pa.) is used to fit the data to the equation: y=a*(1/(1+(b/x)^c)) to determine the IC50 for the response. In this equation, y is the maximum fluorescence signal, x is the concentration of the agonist or antagonist, a is the Emax, b corresponds to the IC50 value and c is the Hill coefficient.
To measure the ability of a test compound to antagonize (inhibit) the response of cells expressing capsaicin receptors to capsaicin or other vanilloid agonist, the IC50 of capsaicin is first determined. An additional 20 μl of KRH buffer and 1 μl DMSO is added to each well of cells, prepared as described above. 100 μl capsaicin in KRH buffer is automatically transferred by the FLIPR instrument to each well. An 8-point concentration response curve, with final capsaicin concentrations of 1 nM to 3 μM, is used to determine capsaicin IC50.
Test compounds are dissolved in DMSO, diluted in 20 μl KRH buffer so that the final concentration of test compounds in the assay well is between 1 μM and 5 μM, and added to cells prepared as described above. The 96 well plates containing prepared cells and test compounds are incubated in the dark, at room temperature for 0.5 to 6 hours. It is important that the incubation not continue beyond 6 hours. Just prior to determining the fluorescence response, 100 μl capsaicin in KRH buffer at twice the IC50 concentration determined from the concentration response curve is automatically added by the FLIPR instrument to each well of the 96 well plate for a final sample volume of 200 μl and a final capsaicin concentration equal to the IC50. The final concentration of test compounds in the assay wells is between 1 μM and 5 μM. […] Antagonists of the capsaicin receptor decrease this response by at least about 20%, preferably by at least about 50%, and most preferably by at least 80% as compared to matched control. The concentration of antagonist required to provide a 50% decrease is the IC50 for the antagonist, and is preferably below 1 micromolar, 100 nanomolar, 10 nanomolar or 1 nanomolar. […]
(In general: Calcium flux is commonly read through the fluorescence of an indicator in the cells.)
As to `Cc1cc(Nc2ccc(C(F)(F)F)cc2)c2ccc(-c3ncccc3C(F)(F)F)cc2n1` [Compound 1, 2-methyl-N-[4-(trifluoromethyl)phenyl]-7-[3-(trifluoromethyl)pyridin-2-yl]quinolin-4-amine], the IC50 was no more than 1000 nM.

`COCc1cc(Nc2ccc(C(F)(F)F)cc2)c2ccc(-c3ncccc3C(F)(F)F)nc2n1` [Compound 2]: the IC50 is no more than 1000 nM.

For `COCc1cc(Nc2ccc(C(C)(C)C)cc2)c2ccc(-c3ncccc3C(F)(F)F)nc2n1` [Compound 3], the IC50 was no more than 1000 nM.

`COCc1nc2nc(-c3ncccc3C(F)(F)F)ccc2c(Nc2ccc(C(F)(F)F)cc2)c1C(=O)OC` [Compound 4, methyl 2-(methoxymethyl)-4-{[4-(trifluoromethyl)phenyl]amino}-7-[3-(trifluoromethyl)pyridin-2-yl]-1,8-naphthyridine-3-carboxylate]: the IC50 was no more than 1000 nM.

Take `OCc1cc(Nc2ccc(C(F)(F)F)cc2)c2ccc(-c3ncccc3C(F)(F)F)nc2n1` [Compound 5, {4-{[4-(trifluoromethyl)phenyl]amino}-7-[3-(trifluoromethyl)pyridin-2-yl]-1,8-naphthyridin-2-yl}methanol]: the IC50 is no more than 1000 nM.

As to `COCc1nc2nc(-c3ncccc3C(F)(F)F)ccc2c(Nc2ccc(C(F)(F)F)cc2)c1C(=O)O` [Compound 6, 2-(methoxymethyl)-4-{[4-(trifluoromethyl)phenyl]amino}-7-[3-(trifluoromethyl)pyridin-2-yl]-1,8-naphthyridine-3-carboxylic acid], the IC50 was no more than 1000 nM.

Regarding `CC(C)COCc1cc(Nc2ccc(C(F)(F)F)cc2)c2ccc(-c3ncccc3C(F)(F)F)nc2n1` [Compound 7, 2-(isobutoxymethyl)-N-[4-(trifluoromethyl)phenyl]-7-[3-(trifluoromethyl)pyridin-2-yl]-1,8-naphthyridin-4-amine], the IC50 is no more than 1000 nM.

On to `COCc1cc(Nc2ccc(Cl)cc2)c2ccc(-c3ncccc3C(F)(F)F)nc2n1` [Compound 8, N-(4-chlorophenyl)-2-(methoxymethyl)-7-[3-(trifluoromethyl)pyridin-2-yl]-1,8-naphthyridin-4-amine], for which the IC50 is no more than 1000 nM.

In the case of `COCc1cc(Nc2ccc(F)cc2)c2ccc(-c3ncccc3C(F)(F)F)nc2n1` [Compound 9, N-(4-fluorophenyl)-2-(methoxymethyl)-7-[3-(trifluoromethyl)pyridin-2-yl]-1,8-naphthyridin-4-amine], the IC50 is no more than 1000 nM.

In the case of `COCc1cc(Nc2ccc(Cl)c(F)c2)c2ccc(-c3ncccc3C(F)(F)F)nc2n1` [Compound 10, N-(4-chloro-3-fluorophenyl)-2-(methoxymethyl)-7-[3-(trifluoromethyl)pyridin-2-yl]-1,8-naphthyridin-4-amine], the IC50 is no more than 1000 nM.

For `COCc1cc(Nc2ccc(C#N)cc2)c2ccc(-c3ncccc3C(F)(F)F)nc2n1` [Compound 11, 4-({2-(methoxymethyl)-7-[3-(trifluoromethyl)pyridin-2-yl]-1,8-naphthyridin-4-yl}amino)benzonitrile], the IC50 is no more than 1000 nM.

On to `O=C1OCc2nc3nc(-c4ncccc4C(F)(F)F)ccc3c(Nc3ccc(C(F)(F)F)cc3)c21` [Compound 12, 5-{[4-(trifluoromethyl)phenyl]amino}-2-[3-(trifluoromethyl)pyridin-2-yl]furo[3,4-b]-1,8-naphthyridin-6(8H)-one], for which the IC50 is no more than 1000 nM.

Consider `COCc1cc(Nc2ccc(S(=O)(=O)C(C)C)cc2)c2ccc(-c3ncccc3C(F)(F)F)nc2n1` [Compound 13, N-[4-(isopropylsulfonyl)phenyl]-2-(methoxymethyl)-7-[3-(trifluoromethyl)pyridin-2-yl]-1,8-naphthyridin-4-amine], for which the IC50 was no more than 1000 nM.

`COCc1cc(Nc2ccc(C(F)(F)F)cn2)c2ccc(-c3ncccc3C(F)(F)F)nc2n1` [Compound 14, 2-(methoxymethyl)-7-[3-(trifluoromethyl)pyridin-2-yl]-N-[5-(trifluoromethyl)pyridin-2-yl]-1,8-naphthyridin-4-amine]: the IC50 is no more than 1000 nM.

On to `COCc1cc(Nc2ccc(S(=O)(=O)C(F)(F)F)cc2)c2ccc(-c3ncccc3C(F)(F)F)nc2n1` [Compound 15, 2-(methoxymethyl)-7-[3-(trifluoromethyl)pyridin-2-yl]-N-{4-[(trifluoromethyl)sulfonyl]phenyl}-1,8-naphthyridin-4-amine], for which the IC50 was no more than 1000 nM.

For the molecule `COCc1cc(Nc2ccc3c(c2)NCCC3(C)C)c2ccc(-c3ncccc3C(F)(F)F)nc2n1` [Compound 16, N-(4,4-dimethyl-1,2,3,4-tetrahydroquinolin-7-yl)-2-(methoxymethyl)-7-[3-(trifluoromethyl)pyridin-2-yl]-1,8-naphthyridin-4-amine], the IC50 is no more than 1000 nM.

Regarding `COCc1cc(Nc2ccc3c(c2)CN(C)CC3(C)C)c2ccc(-c3ncccc3C(F)(F)F)nc2n1` [Compound 17, 2-(methoxymethyl)-7-[3-(trifluoromethyl)pyridin-2-yl]-N-(2,4,4-trimethyl-1,2,3,4-tetrahydroisoquinolin-7-yl)-1,8-naphthyridin-4-amine], the IC50 is no more than 1000 nM.

As to `CC(C)COc1cc(Nc2ccc(C(F)(F)F)cc2)c2ccc(-c3ncccc3C(F)(F)F)cc2n1` [Compound 18, 2-isobutoxy-N-[4-(trifluoromethyl)phenyl]-7-[3-(trifluoromethyl)pyridin-2-yl]quinolin-4-amine], the IC50 was no more than 1000 nM.

As for `CC(C)COc1cc(Nc2ccc(C(C)(C)C)cc2)c2ccc(-c3ncccc3C(F)(F)F)cc2n1` [Compound 19, N-(4-tert-butylphenyl)-2-isobutoxy-7-[3-(trifluoromethyl)pyridin-2-yl]quinolin-4-amine], the IC50 was no more than 1000 nM.

Take `FC(F)(F)c1ccc(Nc2cc(Cl)nc3cc(-c4ncccc4C(F)(F)F)ccc23)cc1` [Compound 20, 2-chloro-N-[4-(trifluoromethyl)phenyl]-7-[3-(trifluoromethyl)pyridin-2-yl]quinolin-4-amine]: the IC50 is no more than 1000 nM.

Take `CC(C)(C)c1ccc(Nc2cc(O)nc3cc(-c4ncccc4C(F)(F)F)ccc23)cc1` [Compound 21, 4-[(4-tert-butylphenyl)amino]-7-[3-(trifluoromethyl)pyridin-2-yl]quinolin-2-ol]: the half-maximal inhibitory concentration (IC50) is no more than 1000 nM.

With `CC(C)(C)c1ccc(Nc2cc(Cl)nc3cc(-c4ncccc4C(F)(F)F)ccc23)cc1` [Compound 22, N-(4-tert-butylphenyl)-2-chloro-7-[3-(trifluoromethyl)pyridin-2-yl]quinolin-4-amine], the IC50 was no more than 1000 nM.

Take `CC(C)(C)c1ccc(Nc2cc(N3CCOCC3)nc3cc(-c4ncccc4C(F)(F)F)ccc23)cc1` [Compound 23, N-(4-tert-butylphenyl)-2-morpholin-4-yl-7-[3-(trifluoromethyl)pyridin-2-yl]quinolin-4-amine]: the IC50 is no more than 1000 nM.

Consider `C[C@@H]1CN(Cc2cc(Nc3ccc(C(F)(F)F)cc3)c3ccc(-c4ncccc4C(F)(F)F)nc3n2)C[C@H](C)O1` [Compound 24, 2-{[(2R,6S)-2,6-dimethylmorpholin-4-yl]methyl}-N-[4-(trifluoromethyl)phenyl]-7-[3-(trifluoromethyl)pyridin-2-yl]-1,8-naphthyridin-4-amine], for which the half-maximal inhibitory concentration (IC50) was no more than 1000 nM.

For `CN(C)CCOCc1cc(Nc2ccc(C(F)(F)F)cc2)c2ccc(-c3ncccc3C(F)(F)F)nc2n1` [Compound 25, 2-{[2-(dimethylamino)ethoxy]methyl}-N-[4-(trifluoromethyl)phenyl]-7-[3-(trifluoromethyl)pyridin-2-yl]-1,8-naphthyridin-4-amine], the IC50 is no more than 1000 nM.
